In patent publication US7230116B2, “Pyrazolyl-substituted heterocycles and their use as phytosanitary products” (Bayer CropScience, AG, priority 2001, dated 2007):

How the values were obtained:
[1] = tested on: cotton aphid (Aphis gossypii); experiment: Aphis gossypii test (cotton leaves dipped); format: in vivo; conditions: 500 ppm active compound
Description: (§1) Aphis gossypii Test [table] To produce a suitable preparation of active compound, 1 part by weight of active compound is mixed with the stated amounts of solvent and emulsifier, and the concentrate is diluted with emulsifier-containing water to the desired concentration. Cotton leaves (Gossypium hirsutum) which are heavily infested by the cotton aphid (Aphis gossypii) are treated by being dipped into the preparation of active compound of the desired concentration. After the desired period of time, the kill in % is determined. 100% means that all aphids have been killed; 0% means that none of the aphids have been killed.

[2] = tested on: larvae of the mustard beetle (Phaedon cochleariae); experiment: Phaedon larvae test; format: in vivo; conditions: 500 ppm active compound
Description: (§2) Phaedon larvae Test [table] To produce a suitable preparation of active compound, 1 part by weight of active compound is mixed with the stated amounts of solvent and emulsifier, and the concentrate is diluted with emulsifier-containing water to the desired concentration. Cabbage leaves (Brassica oleracea) are treated by being dipped into the preparation of active compound of the desired concentration and are populated with larvae of the mustard beetle (Phaedon cochleariae) while the leaves are still moist. After the desired period of time, the kill in % is determined. 100% means that all beetle larvae have been killed; 0% means that none of the beetle larvae have been killed.

[3] = tested on: caterpillars of the armyworm (Spodoptera frugiperda); experiment: Spodoptera frugiperda test; format: in vivo; conditions: 500 ppm active compound
Description: as §2, with “Spodoptera frugiperda” for “Phaedon larvae”, “caterpillars” for “larvae”, “armyworm (Spodoptera frugiperda)” for “mustard beetle (Phaedon cochleariae)”, “caterpillars” for “beetle larvae”

Bromus = experiment: Post-emergence test, greenhouse; format: in vivo; conditions: after three weeks
Description: (§3) Post-Emergence Test [table] To produce a suitable preparation of active compound, 1 part by weight of active compound is mixed with the stated amount of solvent, the stated amount of emulsifier is added and the concentrate is diluted with water to the desired concentration. Test plants of a height of 5-15 cm are sprayed with the preparation of active compound such that the particular amounts of active compound desired are applied per unit area. The concentration of the spray liquor is chosen such that the particular amounts of active compound desired are applied in 1000 l of water/ha. After three weeks, the degree of damage to the plants is rated in % damage in comparison to the development of the untreated control. The figures denote: [table]

Avena fatua = experiment: Post-emergence test, greenhouse; format: in vivo; conditions: after three weeks
Description: as §3

Sugarbeet = experiment: Post-emergence test, greenhouse; format: in vivo; conditions: 250 g ai/ha, after three weeks
Description: as §3

Oilseed rape = experiment: Post-emergence test, greenhouse; format: in vivo; conditions: 125 g ai/ha, after three weeks
Description: as §3

Abutilon = experiment: Post-emergence test, greenhouse; format: in vivo; conditions: 250 g ai/ha, after three weeks
Description: as §3

Viola = experiment: Post-emergence test, greenhouse; format: in vivo; conditions: 125 g ai/ha, after three weeks
Description: as §3

Alopecurus = experiment: Post-emergence test, greenhouse; format: in vivo; conditions: after three weeks
Description: as §3

Lolium = experiment: Post-emergence test, greenhouse; format: in vivo; conditions: after three weeks
Description: as §3

Setaria = experiment: Post-emergence test, greenhouse; format: in vivo; conditions: after three weeks
Description: as §3

[4] = tested on: peach aphid (Myzus persicae); experiment: Myzus test (cabbage leaves dipped); format: in vivo; conditions: 500 ppm active compound
Description: as §1, with “Myzus” for “Aphis gossypii”, “Cabbage” for “Cotton”, “(Brassica oleracea)” for “(Gossypium hirsutum)”, “peach” for “cotton”, “(Myzus persicae)” for “(Aphis gossypii)”

[5] = tested on: caterpillars of the diamondback moth (Plutella xylostella); experiment: Plutella test; format: in vivo; conditions: 500 ppm active compound
Description: as §2, with “Plutella” for “Phaedon larvae”, “caterpillars” for “larvae”, “diamondback moth (Plutella xylostella)” for “mustard beetle (Phaedon cochleariae)”, “caterpillars” for “beetle larvae”

[6] = tested on: greenhouse red spider mite (Tetranychus urticae); experiment: Tetranychus test (OP-resistant/dip treatment); format: in vivo; conditions: 100 ppm active compound, OP-resistant, dip treatment
Description: Tetranychus Test (OP-Resistant/Dip Treatment)
To produce a suitable preparation of active compound, 1 part by weight of active compound is mixed with the stated amounts of solvent and emulsifier, and the concentrate is diluted with emulsifier-containing water to the desired concentration.
Bean plants (Phaseolus vulgaris) which are heavily infested by all stages of the greenhouse red spider mite (Tetranychus urticae) are treated by being dipped into a preparation of active compound of the desired concentration.
After the desired period of time, the effect in % is determined. 100% means that all spider mites have been killed; 0% means that none of the spider mites have been killed.

Amaranthus = experiment: Post-emergence test, greenhouse; format: in vivo; conditions: after three weeks
Description: as §3

Sinapis = experiment: Post-emergence test, greenhouse; format: in vivo; conditions: 250 g ai/ha, after three weeks
Description: as §3

[7] = logP determination by HPLC (reversed-phase C18), EEC Directive 79/831 Annex V.A 8; format: physicochemical; conditions: HPLC reversed-phase column (C 18), 43° C.; for chromatographic logP: reversed-phase C18 HPLC column, pH 2.3
Description: The logP values given for the Examples (I-2-A-a) were determined in accordance with EEC Directive 79/831 Annex V.A 8 by HPLC (High Performance Liquid Chromatography) using a reversed-phase column (C 18). Temperature: 43° C. • (a) Mobile phases for the determination in the acidic range: 0.1% aqueous phosphoric acid, acetonitrile; linear gradient from 10% acetonitrile to 90% acetonitrile. • (b) Mobile phases for the determination in the neutral range: 0.01 molar aqueous phosphate buffer solution, acetonitrile; linear gradient from 10% acetonitrile to 90% acetonitrile. Calibration was carried out using unbranched alkan-2-ones (of 3 to 16 carbon atoms) with known logP values (determination of the logP values by the retention times using linear interpolation between two successive alkanones).

**Q.** With `COC1CCC2(CC1)NC(=O)C(n1nc(-c3ccc(Cl)cc3)cc1C)=C2O` (single isomer, unassigned) [Example I-1-A-a-4] as the compound, how does the “Kill rate in % after 6d” value [1] read?
**A.** The value was 95%.

**Q.** What about the “Kill rate in % after 7d” value [2] of the same compound?
**A.** The value was 100%.

**Q.** And the “Kill rate in % after 7d” value [3]?
**A.** Its value is 100%.

**Q.** What about the “% damage, Bromus” value (Bromus; 125 g ai/ha) of the same compound?
**A.** The value was 100%.

**Q.** What about the “% damage, Bromus” value (Bromus; 250 g ai/ha) of the same compound?
**A.** The value was 100%.

**Q.** And the “% damage, Avena fatua” value (Avena fatua; 125 g ai/ha)?
**A.** Its value is 100%.

**Q.** And the “% damage, Avena fatua” value (Avena fatua; 250 g ai/ha)?
**A.** The value was 100%.

**Q.** What about the “% damage, Sugarbeet” value (Sugarbeet) of the same compound?
**A.** The value was 10%.

**Q.** And the “% damage, Oilseed rape” value (Oilseed rape)?
**A.** Its value is 0%.

**Q.** What about the “% damage, Abutilon” value (Abutilon) of the same compound?
**A.** Its value is 80%.

**Q.** What about the “% damage, Viola” value (Viola) of the same compound?
**A.** Its value is 100%.

**Q.** What about the “% damage, Alopecurus” value (Alopecurus; 125 g ai/ha) of the same compound?
**A.** The value was 100%.

**Q.** And the “% damage, Alopecurus” value (Alopecurus; 250 g ai/ha)?
**A.** The value was 100%.

**Q.** And the “% damage, Lolium” value (Lolium; 125 g ai/ha)?
**A.** Its value is 100%.

**Q.** And the “% damage, Lolium” value (Lolium; 250 g ai/ha)?
**A.** Its value is 100%.

**Q.** And the “% damage, Setaria” value (Setaria; 125 g ai/ha)?
**A.** Its value is 100%.

**Q.** What about the “% damage, Setaria” value (Setaria; 250 g ai/ha) of the same compound?
**A.** The value was 100%.

**Q.** What about the “Kill rate in % after 6d” value [4] of the same compound?
**A.** The value was 90%.

**Q.** What about the “Kill rate in % after 7d” value [5] of the same compound?
**A.** The value was 100%.

**Q.** What about the “Kill rate in % after 7d” value [6] of the same compound?
**A.** The value was 95%.

**Q.** With `CCOC(=O)OC1=C(n2nc(-c3ccc(Cl)cc3)cc2C)C(=O)NC12CCC(OC)CC2` (centres unmarked) [Example I-1-A-c-1] as the compound, how does the “Kill rate in % after 7d” value [2] read?
**A.** The value was 90%.

**Q.** And the “Kill rate in % after 7d” value [3]?
**A.** The value was 100%.

**Q.** And the “% damage, Avena fatua” value (Avena fatua; 250 g ai/ha)?
**A.** The value was 100%.

**Q.** And the “% damage, Amaranthus” value (Amaranthus; 250 g ai/ha)?
**A.** Its value is 95%.

**Q.** What about the “% damage, Abutilon” value (Abutilon) of the same compound?
**A.** Its value is 95%.

**Q.** What about the “% damage, Alopecurus” value (Alopecurus; 250 g ai/ha) of the same compound?
**A.** Its value is 100%.

**Q.** What about the “% damage, Setaria” value (Setaria; 250 g ai/ha) of the same compound?
**A.** The value was 100%.

**Q.** And the “% damage, Sinapis” value (Sinapis)?
**A.** Its value is 80%.

**Q.** What about the “Kill rate in % after 7d” value [6] of the same compound?
**A.** Its value is 98%.

**Q.** For `Cc1cc(-c2ccc(Cl)cc2)nn1C1=C(O)C2(Cc3ccccc3C2)OC1=O` [Example I-2-A-a-5], which “logP (pH 2.3)” value [7] is on record?
**A.** Its value is 2.35.

**Q.** With `CCOC1CCC2(CC1)OC(=O)C(n1nc(-c3ccc(Cl)cc3)cc1C)=C2O` (centres unmarked) [Example I-2-A-a-4] as the compound, how does the “logP (pH 2.3)” value [7] read?
**A.** The value was 2.46.

**Q.** With `Cc1cc(-c2ccc(Cl)cc2)nn1C1=C(O)C(C)(C)OC1=O` [Example I-2-A-a-3] as the compound, how does the “logP (pH 2.3)” value [7] read?
**A.** The value was 1.74.

**Q.** Which “logP (pH 2.3)” value [7] does the source give for `Cc1cc(-c2ccc(Cl)cc2)nn1C1=C(O)C2(CCC(C(F)(F)F)CC2)OC1=O` (centres unmarked) [Example I-2-A-a-2] here?
**A.** The value was 2.74.

**Q.** With `CCOC(=O)C1(OC(=O)Cn2nc(-c3ccc(Cl)cc3)cc2C)CCC(OC)CC1` (centres unmarked) [Example III-A-1] as the compound, how does the chromatographic logP [7] read?
**A.** The chromatographic logP was 4.11.

**Q.** What does the source list for `COC1CCC2(CC1)OC(=O)C(n1nc(-c3ccc(Cl)cc3)cc1C)=C2O` (centres unmarked) [Example I-2-A-a-1]?
**A.** Kill rate in % after 6d [4]: 90%; chromatographic logP [7]: 2.05; Kill rate in % after 7d [6]: 100%

**Q.** For `Cc1cc(-c2ccc(Cl)cc2)nn1C1=C(OC(=O)C(C)(C)C)C2(CCCOC2)OC1=O` (centres unmarked) [Example I-2-A-b-1], which chromatographic logP [7] is on record?
**A.** Its chromatographic logP is 4.32.

**Q.** Which “logP (pH 2.3)” value [7] does the source give for `Cc1cc(-c2ccccc2)nn1C1=C(O)C(C)(C(C)C)OC1=O` (centres unmarked) [Example I-2-A-a-9] here?
**A.** Its value is 1.50.

**Q.** Which “logP (pH 2.3)” value [7] does the source give for `CCC1(C)OC(=O)C(n2nc(-c3ccc(Br)cc3)cc2C)=C1O` (centres unmarked) [Example I-2-A-a-8] here?
**A.** Its value is 2.70.

**Q.** For `Cc1cc(-c2ccc(Cl)cc2)nn1C1=C(O)C2(CCCOC2)OC1=O` (centres unmarked) [Example I-2-A-a-6], which “logP (pH 2.3)” value [7] is on record?
**A.** Its value is 1.49.

**Q.** With `Cc1cc(-c2ccc(Cl)cc2)nn1C1=C(O)C2(CCOCC2)OC1=O` [Example I-2-A-a-7] as the compound, how does the “logP (pH 2.3)” value [7] read?
**A.** The value was 1.55.

**Q.** For `Cc1cc(-c2cccc(C(F)(F)F)c2)nn1C1=C(O)C(C)(CC(C)(C)C)OC1=O` (centres unmarked) [Example I-2-A-a-10], which “logP (pH 2.3)” value [7] is on record?
**A.** The value was 2.92.

**Q.** With `CCOC(=O)OC1=C(c2c(C)nn(-c3ccc(Cl)cc3)c2C)C(=O)NC12CCC(OC)CC2` (centres unmarked) [Example I-1-B-c-1] as the compound, how does the “% damage, Avena fatua” value (Avena fatua; 2000 g ai/ha) read?
**A.** The value was 90%.

**Q.** And the “% damage, Amaranthus” value (Amaranthus; 2000 g ai/ha)?
**A.** Its value is 90%.

**Q.** What about the “% damage, Alopecurus” value (Alopecurus; 2000 g ai/ha) of the same compound?
**A.** The value was 90%.

**Q.** What about the “% damage, Setaria” value (Setaria; 2000 g ai/ha) of the same compound?
**A.** The value was 95%.
